Experimental findings from patent publication US11845724B2, “USP30 inhibitors and uses thereof” (Vincere Biosciences, Inc., priority 2019, dated 2023) are described below.

For experiment [1], the target named is recombinant USP30 (amino acids 57-517 of the human sequence) (Homo sapiens (Human), UniProt Q70CQ3). The experiment can be described thus: In vitro USP30 biochemical assay (Ubiquitin-Rhodamine).
The target in the next experiment is USP30 (Homo sapiens (Human), UniProt Q70CQ3). The experiment can be described thus: Dundee MALDI-TOF mass spectrometry assay (IC50). In kind it is biochemical. The settings on record: USP30 25 ng/μl, K48-linked diubiquitin 5.6 μM, avg, read-out: Dundee IC50 μM (avg in vitro MS assay). As for the experimental part:
Compounds were tested in a MALDI-TOF assay based on the paper by Ritorto et al. (Ritorto et al. Screening of DUB activity and specificity by MALDI-TOF mass spectrometry. Nat. […] USP30 (25 ng/μl) tested against K48-linked diubiquitin (5.6 μM). USP30 was diluted in a buffer containing 40 mM Tris, 0.01% BSA, 1 mM DTT and K48 in 40 mM Tris, 0.01% BSA. The compounds were pre-incubated with the USP30 for 5 mins at room temp before the K48 dimer addition. The assay mixture was then incubated for 45 mins at room temp. The assay was stopped by the addition of TFA to a final concentration of 2% (v/v). […] Then 250 nl of these solutions were spotted onto an MTP AnchorChip 1,536 TF and this is analysed on the Bruker rapifleX MALDI-TOF.

Setting [2] is: USP30 IC50 μM (avg), Ubiquitin-Rhodamine substrate 25 nM, 1.5 nM recombinant USP30.
Where [3] appears, read: read-out: USP30 IC50 μM (avg), Ubiquitin-Rhodamine substrate 25 nM, 1.5 nM recombinant USP30.

The structures appear in SMILES notation. Read-outs that look alike come from different tables or passages of the source.

Chain of recombinant USP30 (amino acids 57-517 of the human sequence) (Q70CQ3 57-517): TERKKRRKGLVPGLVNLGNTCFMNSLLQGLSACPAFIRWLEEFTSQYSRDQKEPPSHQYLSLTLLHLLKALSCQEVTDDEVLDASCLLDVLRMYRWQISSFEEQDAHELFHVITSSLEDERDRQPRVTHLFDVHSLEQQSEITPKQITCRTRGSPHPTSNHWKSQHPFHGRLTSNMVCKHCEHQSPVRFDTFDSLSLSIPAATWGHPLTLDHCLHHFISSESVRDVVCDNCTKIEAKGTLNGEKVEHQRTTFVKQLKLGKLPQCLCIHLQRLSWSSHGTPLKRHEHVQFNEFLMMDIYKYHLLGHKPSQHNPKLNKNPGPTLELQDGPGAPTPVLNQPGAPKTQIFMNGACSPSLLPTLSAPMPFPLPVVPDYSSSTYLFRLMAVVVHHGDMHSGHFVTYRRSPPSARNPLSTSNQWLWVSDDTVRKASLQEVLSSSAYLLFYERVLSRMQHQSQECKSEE
Chain of USP30 (Q70CQ3 whole entry): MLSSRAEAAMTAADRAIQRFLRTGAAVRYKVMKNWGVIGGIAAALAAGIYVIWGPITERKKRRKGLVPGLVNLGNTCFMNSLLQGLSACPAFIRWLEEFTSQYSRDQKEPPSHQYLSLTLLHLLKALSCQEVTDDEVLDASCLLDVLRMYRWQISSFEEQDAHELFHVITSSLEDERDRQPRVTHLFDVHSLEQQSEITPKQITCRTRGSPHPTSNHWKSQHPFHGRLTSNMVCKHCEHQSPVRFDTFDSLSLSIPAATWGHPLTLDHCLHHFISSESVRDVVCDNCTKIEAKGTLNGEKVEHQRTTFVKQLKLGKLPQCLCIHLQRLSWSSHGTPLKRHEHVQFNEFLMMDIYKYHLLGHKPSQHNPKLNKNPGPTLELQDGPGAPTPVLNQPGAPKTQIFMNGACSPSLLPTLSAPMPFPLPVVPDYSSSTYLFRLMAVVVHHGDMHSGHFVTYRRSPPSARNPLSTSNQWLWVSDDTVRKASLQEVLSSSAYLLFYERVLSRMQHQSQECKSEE

A word on the IC50: it is the concentration that inhibits the measured activity by half. Take `O=C(N[C@@H](Cc1ccccc1)C(=O)Nc1ccc(S(=O)(=O)NC23CC(C2)C3)cc1)c1cccc(F)c1` [Compound I-95, (S)-N-(1-(4-(N-bicyclo[1.1.1]pentan-1-ylsulfamoyl)phenylamino)-1-oxo-3-phenylpropan-2-yl)-3-fluorobenzamide]: the IC50 (in experiment [1] (setting [2]); on USP30) was 0.05 to 1 µM in each case.
Take `Cc1cc(NC(=O)[C@H](Cc2ccccc2)NC(=O)c2ccc(F)cc2)ccc1S(=O)(=O)NC(C)(C)C` [Compound I-96, (S)-N-(1-(4-(N-tert-butylsulfamoyl)-3-methylphenylamino)-1-oxo-3-phenylpropan-2-yl)-4-fluorobenzamide]: the IC50 in experiment [1] (setting [3]) is less than 0.05 µM; on USP30, 0.05 to 1 µM.
Turning to `Cc1cc(NC(=O)[C@H](Cc2ccccc2)NC(=O)c2ccc(F)cn2)ccc1S(=O)(=O)NC12CC(C1)C2` [Compound I-98, (S)-N-(1-(4-(N-bicyclo[1.1.1]pentan-1-ylsulfamoyl)-3-methylphenylamino)-1-oxo-3-phenylpropan-2-yl)-5-fluoropicolinamide], the half-maximal inhibitory concentration (IC50) (in experiment [1] (setting [2]); at USP30) was 0.05 to 1 µM throughout.
In the case of `O=C(N[C@H](Cc1ccccc1)C(=O)Nc1ccc(S(=O)(=O)NC23CC(C2)C3)cc1)c1ccc(F)cc1` [Compound I-99, (R)-N-(1-(4-(N-bicyclo[1.1.1]pentan-1-ylsulfamoyl)phenylamino)-1-oxo-3-phenylpropan-2-yl)-4-fluorobenzamide], the IC50 (in experiment [1] (setting [3]); at USP30) was greater than 10 µM throughout.
As for `O=C(NC1(C(=O)Nc2ccc(S(=O)(=O)NC3COC3)cc2)Cc2ccccc2C1)c1ccc(F)cc1` [Compound I-101, 2-(4-fluorobenzamido)-N-(4-(N-oxetan-3-ylsulfamoyl)phenyl)-2,3-dihydro-1H-indene-2-carboxamide], the IC50 (in experiment [1] (setting [3]); on USP30) was greater than 10 µM throughout.
As to `O=C(NC1(C(=O)Nc2ccc(S(=O)(=O)NC34CC(C3)C4)cc2)Cc2ccccc2C1)c1ccc(F)cc1` [Compound I-102, N-(4-(N-bicyclo[1.1.1]pentan-1-ylsulfamoyl)phenyl)-2-(4-fluorobenzamido)-2,3-dihydro-1H-indene-2-carboxamide], the IC50 in experiment [1] (setting [3]) was greater than 10 µM; on USP30, 0.05 to 1 µM.
With `CCNS(=O)(=O)c1ccc(NC(=O)[C@H](Cc2ccccc2)NC(=O)c2ccc(F)cc2)cn1` [Compound I-105, (S)-N-(1-(6-(N-ethylsulfamoyl)pyridin-3-ylamino)-1-oxo-3-phenylpropan-2-yl)-4-fluorobenzamide], the IC50 (in experiment [1] (setting [2]); on USP30) was 0.05 to 1 µM each time.
With `O=C(N[C@@H](Cc1ccccc1)C(=O)Nc1ccc(S(=O)(=O)NC2COC2)nc1)c1ccc(F)cc1` [Compound I-106, (S)-4-fluoro-N-(1-(6-(N-oxetan-3-ylsulfamoyl)pyridin-3-ylamino)-1-oxo-3-phenylpropan-2-yl)benzamide], the IC50 (in experiment [1] (setting [2]); on USP30) was 0.05 to 1 µM each time.
Consider `COCCNS(=O)(=O)c1ccc(NC(=O)[C@H](Cc2ccccc2)NC(=O)c2ccc(F)cc2)cn1` [Compound I-108, (S)-4-fluoro-N-(1-(6-(N-(2-methoxyethyl)sulfamoyl)pyridin-3-ylamino)-1-oxo-3-phenylpropan-2-yl)benzamide], for which the half-inhibitory concentration (IC50) (in experiment [1] (setting [2]); on USP30) was 0.05 to 1 µM in each case.
`O=C(N[C@@H](Cc1ccccc1)C(=O)Nc1ccc(S(=O)(=O)NCCN2CCOCC2)nc1)c1ccc(F)cc1` [Compound I-111, (S)-4-fluoro-N-(1-(6-(N-(2-morpholinoethyl)sulfamoyl)pyridin-3-ylamino)-1-oxo-3-phenylpropan-2-yl)benzamide]: the concentration for half-maximal inhibition (IC50) (in experiment [1] (setting [2]); on USP30) was 0.05 to 1 µM in each case.
`O=C(N[C@@H](Cc1ccccc1)C(=O)Nc1ccc(S(=O)(=O)NCCCN2CCOCC2)nc1)c1ccc(F)cc1` [Compound I-112, (S)-4-fluoro-N-(1-(6-(N-(3-morpholinopropyl)sulfamoyl)pyridin-3-ylamino)-1-oxo-3-phenylpropan-2-yl)benzamide]: the IC50 (in experiment [1] (setting [2]); on USP30) was 0.05 to 1 µM each time.
Turning to `COCC(C)(C)NS(=O)(=O)c1ccc(NC(=O)[C@H](Cc2ccccc2)NC(=O)c2ccc(F)cc2)cn1` [Compound I-113, (S)-4-fluoro-N-(1-(6-(N-(1-methoxy-2-methylpropan-2-yl)sulfamoyl)pyridin-3-ylamino)-1-oxo-3-phenylpropan-2-yl)benzamide], the IC50 (in experiment [1] (setting [2]); at USP30) was 0.05 to 1 µM in each case.
With `CC(C)(C)OCCNS(=O)(=O)c1ccc(NC(=O)[C@H](Cc2ccccc2)NC(=O)c2ccc(F)cc2)cn1` [Compound I-114, (S)-N-(1-(6-(N-(2-tert-butoxyethyl)sulfamoyl)pyridin-3-ylamino)-1-oxo-3-phenylpropan-2-yl)-4-fluorobenzamide], the IC50 (in experiment [1] (setting [2]); on USP30) was 0.05 to 1 µM throughout.
In the case of `CC1(NS(=O)(=O)c2ccc(NC(=O)[C@H](Cc3ccccc3)NC(=O)c3ccc(F)cc3)cn2)COC1` [Compound I-115, (S)-4-fluoro-N-(1-(6-(N-(3-methyloxetan-3-yl)sulfamoyl)pyridin-3-ylamino)-1-oxo-3-phenylpropan-2-yl)benzamide], the IC50 in experiment [1] (setting [2]) was 0.05 to 1 µM; at USP30, less than 0.05 µM.
With `CC(C)(CO)NS(=O)(=O)c1ccc(NC(=O)[C@H](Cc2ccccc2)NC(=O)c2ccc(F)cc2)cn1` [Compound I-116, (S)-4-fluoro-N-(1-(6-(N-(1-hydroxy-2-methylpropan-2-yl)sulfamoyl)pyridin-3-ylamino)-1-oxo-3-phenylpropan-2-yl)benzamide], the IC50 (in experiment [1] (setting [2]); on USP30) was 0.05 to 1 µM throughout.
In the case of `CCNS(=O)(=O)c1ccc(NC(=O)[C@H](Cc2ccccc2)NC(=O)c2ccc(F)cc2)nc1` [Compound I-117, (S)-N-(1-(5-(N-ethylsulfamoyl)pyridin-2-ylamino)-1-oxo-3-phenylpropan-2-yl)-4-fluorobenzamide], the 50% inhibitory concentration (IC50) in experiment [1] (setting [2]) is 0.05 to 1 µM; on USP30, less than 0.05 µM.
In the case of `O=C(N[C@@H](Cc1ccccc1)C(=O)Nc1ccc(S(=O)(=O)NC23CC(C2)C3)cn1)c1ccc(F)cc1` [Compound I-118, (S)-N-(1-(5-(N-bicyclo[1.1.1]pentan-1-ylsulfamoyl)pyridin-2-ylamino)-1-oxo-3-phenylpropan-2-yl)-4-fluorobenzamide], the IC50 (in experiment [1] (setting [2]); at USP30) was 0.05 to 1 µM in each case.
Regarding `O=C(N[C@@H](Cc1ccccc1)C(=O)Nc1ccc(S(=O)(=O)NC2COC2)cn1)c1ccc(F)cc1` [Compound I-119, (S)-4-fluoro-N-(1-(5-(N-oxetan-3-ylsulfamoyl)pyridin-2-ylamino)-1-oxo-3-phenylpropan-2-yl)benzamide], the IC50 (in experiment [1] (setting [2]); on USP30) was 0.05 to 1 µM each time.
In the case of `COCCNS(=O)(=O)c1ccc(NC(=O)[C@H](Cc2ccccc2)NC(=O)c2ccc(F)cc2)nc1` [Compound I-120, (S)-4-fluoro-N-(1-(5-(N-(2-methoxyethyl)sulfamoyl)pyridin-2-ylamino)-1-oxo-3-phenylpropan-2-yl)benzamide], the concentration for half-maximal inhibition (IC50) (in experiment [1] (setting [2]); on USP30) was 0.05 to 1 µM each time.
Consider `O=C(N[C@@H](Cc1ccccc1)C(=O)Nc1ccc(S(=O)(=O)NCCO)cn1)c1ccc(F)cc1` [Compound I-121, (S)-4-fluoro-N-(1-(5-(N-(2-hydroxyethyl)sulfamoyl)pyridin-2-ylamino)-1-oxo-3-phenylpropan-2-yl)benzamide], for which the IC50 (in experiment [1] (setting [2]); at USP30) was 0.05 to 1 µM throughout.
As for `O=C(N[C@@H](Cc1ccccc1)C(=O)Nc1ccc(S(=O)(=O)NCCN2CCOCC2)cn1)c1ccc(F)cc1` [Compound I-122, (S)-4-fluoro-N-(1-(5-(N-(2-morpholinoethyl)sulfamoyl)pyridin-2-ylamino)-1-oxo-3-phenylpropan-2-yl)benzamide], the IC50 (in experiment [1] (setting [2]); on USP30) was 0.05 to 1 µM each time.
Turning to `O=C(N[C@@H](Cc1ccccc1)C(=O)Nc1ccc(S(=O)(=O)NCCCN2CCOCC2)cn1)c1ccc(F)cc1` [Compound I-123, (S)-4-fluoro-N-(1-(5-(N-(3-morpholinopropyl)sulfamoyl)pyridin-2-ylamino)-1-oxo-3-phenylpropan-2-yl)benzamide], the 50% inhibitory concentration (IC50) (in experiment [1] (setting [2]); on USP30) was 0.05 to 1 µM in each case.
On to `CCNS(=O)(=O)c1cccc2c(NC(=O)[C@H](Cc3ccccc3)NC(=O)C3CCCCC3)cccc12` [Compound I-124, (S)-N-(1-(5-(N-ethylsulfamoyl)naphthalen-1-ylamino)-1-oxo-3-phenylpropan-2-yl)cyclohexanecarboxamide], for which the IC50 in experiment [1] (setting [2]) was 0.05 to 1 µM; on USP30, less than 0.05 µM.
As for `CCNS(=O)(=O)c1cccc2c(NC(=O)[C@H](Cc3ccccc3)NC(=O)c3ccc(F)cc3)cccc12` [Compound I-125], the IC50 was 0.05 to 1 µM in experiment [1] (setting [2]) and less than 0.05 µM at USP30.
With `CCNS(=O)(=O)N1CCCc2c(NC(=O)[C@H](Cc3ccccc3)NC(=O)C3CCCCC3)cccc21` [Compound I-126, (S)-N-(1-(1-(N-ethylsulfamoyl)-1,2,3,4-tetrahydroquinolin-5-ylamino)-1-oxo-3-phenylpropan-2-yl)cyclohexanecarboxamide], the half-inhibitory concentration (IC50) in experiment [1] (setting [3]) was greater than 10 µM; at USP30, 1 to 10 µM.
